In PubChem BioAssay (NCI):
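1) Cells in 96-well plates. 2) Compound, 48 h, 5 concentrations. 3) Linear interpolation between surrounding doses. 4) Unreached endpoint = highest concentration. At the TGI there is no net growth.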

Experiments:
Assay in all cases: NCI-60 cell line screen, 48 h
U251 CNS = system: U251 CNS
SF-539 CNS = system: SF-539 CNS
HS 578T breast = system: HS 578T breast
NCI/ADR-RES ovarian = system: NCI/ADR-RES ovarian
SW-620 colon = system: SW-620 colon
HOP-62 NSCLC = system: HOP-62 NSCLC
SR leukemia = system: SR leukemia
OVCAR-3 ovarian = system: OVCAR-3 ovarian
HL-60(TB) leukemia = system: HL-60(TB) leukemia
OVCAR-8 ovarian = system: OVCAR-8 ovarian
MALME-3M melanoma = system: MALME-3M melanoma
HCT-15 colon = system: HCT-15 colon
CAKI-1 renal = system: CAKI-1 renal
SK-MEL-28 melanoma = system: SK-MEL-28 melanoma
ACHN renal = system: ACHN renal
RPMI-8226 leukemia = system: RPMI-8226 leukemia
HOP-92 NSCLC = system: HOP-92 NSCLC
MDA-N = system: MDA-N

SMILES | TGI (U251 CNS) [µM] | TGI (SF-539 CNS) [µM] | TGI (HS 578T breast) [µM] | TGI (NCI/ADR-RES ovarian) [µM] | TGI (SW-620 colon) [µM] | TGI (HOP-62 NSCLC) [µM] | TGI (SR leukemia) [µM] | TGI (OVCAR-3 ovarian) [µM] | TGI (HL-60(TB) leukemia) [µM] | TGI (OVCAR-8 ovarian) [µM] | TGI (MALME-3M melanoma) [µM] | TGI (HCT-15 colon) [µM] | TGI (CAKI-1 renal) [µM] | TGI (SK-MEL-28 melanoma) [µM] | TGI (ACHN renal) [µM] | TGI (RPMI-8226 leukemia) [µM] | TGI (HOP-92 NSCLC) [µM] | TGI (MDA-N) [µM]
Cc1ccc(/C(Cl)=C/C=C(C#N)C#N)cc1 | 18.4 | 6.37 | 5.58 | 4.48 | 3.71 | 3.88 | 7.47 | 3.91 | 36.9 | 8.67 | 16.1 | 4.79 | 14.4 | 5.12 | 5.29 | – | – | –
Cc1ccc(S(=O)(=O)c2ccsc2NC(=O)C(F)(F)F)cc1 | > 100 | > 100 | > 100 | > 100 | > 100 | > 100 | – | > 100 | – | > 100 | > 100 | > 100 | 82.6 | > 100 | > 100 | 31 | > 100 | 98.9
Cc1cccc(C(C)C)c1NC(=O)/C(Cc1c([N+](=O)[O-])cccc1[N+](=O)[O-])=N/NC(=O)CC#N | – | > 100 | – | – | > 100 | – | – | > 100 | > 100 | – | > 100 | > 100 | > 100 | > 100 | > 100 | – | > 100 | –
CCC(C)(C)C1CCC2c3c([nH]c4ccccc34)C3C(=O)N(c4ccc(OC)cc4)C(=O)C3C2C1 (configuration not stated) | 54.8 | 33.5 | – | 44.4 | > 100 | 23.2 | 75.3 | 7.28 | – | 30.4 | 63 | > 100 | 22.7 | > 100 | 58.6 | – | – | 68.6
NC(=S)N1N=C2c3ccccc3CC[C@@H]2[C@@H]1c1ccccc1 | 21.6 | 22.3 | – | – | > 59.3 | > 59.1 | 12.6 | 12.7 | 10.5 | 72.3 | 66.7 | 24.6 | 42.2 | – | > 88.9 | 32.9 | 47.2 | –
O=C(O)C1CCCN(CCc2c[nH]c3ccccc23)C1 (configuration not stated) | > 100 | > 100 | – | > 100 | > 100 | > 100 | – | > 100 | > 100 | > 100 | > 100 | > 100 | > 100 | > 100 | > 100 | > 100 | > 100 | > 100
O=C1NC(=O)C(CCC(=O)c2ccc3ccccc3c2)C(=O)N1 | > 100 | > 100 | – | – | > 100 | > 100 | > 100 | > 100 | > 100 | > 100 | > 100 | > 100 | > 100 | > 100 | > 100 | – | > 100 | –
CC(=O)Oc1cc(Cl)c(C)c2c1[C@H]1CC[C@]3(C)[C@@H](OC(C)=O)CC[C@H]3[C@@H]1CC2 | > 100 | > 100 | > 100 | > 100 | > 100 | > 100 | – | > 100 | > 100 | > 100 | > 100 | > 100 | – | > 100 | > 100 | > 100 | > 100 | > 100
COC(=O)c1cc(C)ccc1C1CN=NC12Cc1ccc(C)cc1C2=O (configuration not stated) | > 100 | > 100 | > 100 | > 100 | > 100 | > 100 | – | > 100 | 37.5 | > 100 | > 100 | > 100 | > 100 | > 100 | > 100 | – | 66.5 | > 100
N#CC1C(=O)N(c2ccccc2)NC12OC(=O)c1ccncc12 (configuration not stated) | > 20 | > 20 | – | > 20 | > 20 | – | > 20 | > 20 | > 20 | > 20 | > 20 | > 20 | > 20 | > 20 | > 20 | > 20 | > 20 | > 20
OC1(c2ccccc2)C2CCN(CC2)C1CN1CCOCC1 (configuration not stated) | > 100 | > 100 | – | > 100 | > 100 | > 100 | > 100 | > 100 | > 100 | > 100 | > 100 | > 100 | > 100 | > 100 | > 100 | > 100 | – | –
O=[N+]([O-])c1ccc2c(c1)S(=O)(=O)N1Cc3ccccc3CCN21 | > 100 | > 100 | > 100 | > 100 | > 100 | > 100 | > 100 | > 100 | > 100 | > 100 | > 100 | > 100 | > 100 | > 100 | > 100 | > 100 | > 100 | –
O=c1cc(N2CCNCC2)nc2ccccn12 | > 100 | > 100 | > 100 | > 100 | > 100 | > 100 | – | > 100 | > 100 | > 100 | > 100 | > 100 | > 100 | – | > 100 | > 100 | > 100 | > 100
N#CC12CNCC1CN=N2 (configuration not stated) | > 100 | – | – | > 100 | > 100 | > 100 | > 100 | > 100 | > 100 | > 100 | > 100 | > 100 | > 100 | > 100 | > 100 | – | > 100 | > 100
COC(=O)/C=C(/C=C1/C(C#N)=C(N)N(c2ccc(Cl)cc2)C1(C)/C(=C/C(=O)OC)C(=O)OC)C(=O)OC (configuration not stated) | > 100 | > 100 | – | > 100 | > 100 | > 100 | > 100 | > 100 | 41.8 | > 100 | > 100 | > 100 | > 100 | > 100 | > 100 | > 100 | 88.6 | > 100
